pIC50: −log10 of the molar value.
Legend:
[1] = Body weight in mouse lung cancer xenograft model; type: in vivo; conditions: IP 40 mg/kg/day, tumor-bearing mice
Excerpt: The mice were maintained under specific pathogen-free condition in a 12-h light-dark cycle. Experimental conditions were followed in accordance to the “Institutional AnimalCare and User Committee guidelines” of the Macau University of Science and Technology. Xenograft mouse model was constructed as previously described (Wong, V. K. et al., Oncotarget, 2016, 7, 9907-9924). LLC-1 Lewis lung cancer cells (1×10^6 cells) were subcutaneously injected in the right dorsal region of the mice. After tumors grew to about 100 mm^3, the mice were randomly divided into 3 groups: 1) the control group, 2) 40 mg/kg cobalt-polypyridyl complex of Formula (IV) group, and 3) 40 mg/kg cobalt-polypyridyl complex of Formula (IV) as chloride, also referenced as (IV)-Cl (water soluble form) group. The cobalt-polypyridyl complex of Formula (IV) was dissolved in 100 μL buffer (PEG400:EtOH:ddH2O=6:1:3), whereas (IV)-Cl (water soluble form) was dissolved in ddH2O. The complexes were then intraperitoneal injected in mice every day. The body weight of each mouse was recorded with the tumor volume determined by Vernier caliper using the formula of L×W^2×0.52, where L is the longest diameter of tumor and W is the shortest diameter of tumor. Mice with tumor implants were sacrificed after 10 days when the tumor size of vehicle control group reached above 1000 mm^3 due to animal ethical issue.

[2] = tested on: OV2008/C13 cervical cancer cells; assay: MTT cytotoxicity, OV2008/C13 (cisplatin-resistant); type: cell-based; conditions: for Resistant Factor: OV2008/C13 over OV2008
Protocol: (§1) All prepared cobalt-polypyridyl complexes were dissolved in DMSO at a final concentration of 50 mmol/L and stored at −20° C. before use. Cytotoxicity was assessed by using the 3-(4,5-dimethylthiazol-2-yl)-2,5-diphenyltetrazolium bromide (MTT) (5.0 mg/ml) assay as previously described (Wong, V. K. et al., Cell Death Dis, 2013, 4, e720). Briefly, 4×10^3 cells per well were seeded in 96-well plates before drug treatments. After overnight culture, the cells were then exposed to different concentrations of selected compounds (0.039-100 μmol/L) for 72 h. Cells without drug treatment were used as control. Subsequently, MTT (10 μL) solution was added to each well and incubated at 37° C. for 4 h followed by the addition of 100 μL solubilization buffer (10% SDS in 0.01 mol/L HCl) and overnight incubation. A570 nm was then determined in each well on the next day. The percentage of cell viability was calculated using the following formula: Cell viability (%)=Atreated/Acontrol×100. Data were obtained from three independent experiments.
(§2) Cisplatin-sensitive or -resistant A2780, OV2008 and C13 cancer cells were provided by Prof. Benjamin Tsang (Department of Obstetrics and Gynecology and Department of Cellular and Molecular Medicine, University of Ottawa, Canada). HCT116 p53^+/+ and p53^−/− isogenic human colon cancer cells were provided by Professor Bert Vogelstein (Ludwig Center at Johns Hopkins, Howard Hughes Medical Institute, USA). All media were supplemented with 10% fetal bovine serum and the antibiotics penicillin (50 U/ml) and streptomycin (50 μg/ml; Invitrogen, Paisley, Scotland, UK). All cell cultures were incubated at 37° C. in a 5% humidified CO2 incubator.

[3] = tested on: HeLa cells (cervical cancer); assay: MTT cytotoxicity assay, HeLa; type: cell-based; conditions: 72 h
Protocol: as §1, with “experiments. Cells include HeLa cells (cervical cancer), MCF-7 (breast cancer), H1299, H1975, A549 and LLC-1 (lung cancer), HepG2 and Hep3B (liver cancer) and LO2 (normal human hepatocytes).” for “experiments.”

[4] = tested on: OV2008 cervical cancer cells; assay: MTT cytotoxicity, OV2008 (cisplatin-sensitive); type: cell-based; conditions: 72 h
Protocol: as §1, §2

LLC-1 (lung cancer) = assay: MTT cytotoxicity assay, LLC-1; type: cell-based; conditions: LLC-1, MTT, 72 h
Protocol: as §1, with “experiments. Cells include HeLa cells (cervical cancer), MCF-7 (breast cancer), H1299, H1975, A549 and LLC-1 (lung cancer), HepG2 and Hep3B (liver cancer) and LO2 (normal human hepatocytes).” for “experiments.”

Hep 3B (liver cancer) = assay: MTT cytotoxicity assay, Hep3B; type: cell-based; conditions: 72 h
Protocol: as §1, with “experiments. Cells include HeLa cells (cervical cancer), MCF-7 (breast cancer), H1299, H1975, A549 and LLC-1 (lung cancer), HepG2 and Hep3B (liver cancer) and LO2 (normal human hepatocytes).” for “experiments.”

[5] = tested on: cisplatin-resistant A2780 ovarian cancer cells; assay: MTT cytotoxicity, cisplatin-resistant A2780; type: cell-based; conditions: for pIC50: A2780, MTT, 72 h; for Resistant Factor: A2780, cisplatin-resistant over cisplatin-sensitive
Protocol: as §1, §2

A549 (lung cancer) = assay: MTT cytotoxicity assay, A549; type: cell-based; conditions: 72 h
Protocol: as §1, with “experiments. Cells include HeLa cells (cervical cancer), MCF-7 (breast cancer), H1299, H1975, A549 and LLC-1 (lung cancer), HepG2 and Hep3B (liver cancer) and LO2 (normal human hepatocytes).” for “experiments.”

H1299 (lung cancer) = assay: MTT cytotoxicity assay, H1299; type: cell-based, human; conditions: 72 h
Protocol: as §1, with “experiments. Cells include HeLa cells (cervical cancer), MCF-7 (breast cancer), H1299, H1975, A549 and LLC-1 (lung cancer), HepG2 and Hep3B (liver cancer) and LO2 (normal human hepatocytes).” for “experiments.”

[6] = tested on: Taxol-sensitive HCT8 cancer cells; assay: MTT cytotoxicity, taxol-sensitive HCT8; type: cell-based; conditions: 72 h
Protocol: as §1

[7] = tested on: cisplatin-sensitive A2780 ovarian cancer cells; assay: MTT cytotoxicity, cisplatin-sensitive A2780; type: cell-based; conditions: 72 h
Protocol: as §1, §2

[8] = tested on: Taxol-resistant MCF-7 cancer cells; assay: MTT cytotoxicity, taxol-resistant MCF-7; type: cell-based; conditions: for pIC50: MCF-7, MTT, 72 h; for Resistant Factor: MCF-7, IC50 taxol-resistant over IC50 taxol-sensitive
Protocol: as §1
(§3) All cells were obtained from the American Type Culture Collection (Rockville, Md., USA) unless otherwise specified. Immortalized wild-type and Atg7-deficient mouse embryonic fibroblasts (MEFs) were provided by Professor Masaaki Komatsu (Juntendo University, School of Medicine, Japan). Taxol-resistant types of A549, MCF-7, HCT-8 cancer cells, cisplatin-resistant SGC7901 cancer cells were purchased from KeyGEN BioTECH, China.

[9] = tested on: LO2 (normal human hepatocytes); assay: MTT cytotoxicity assay, LO2; type: cell-based; conditions: 72 h
Protocol: as §1, with “experiments. Cells include HeLa cells (cervical cancer), MCF-7 (breast cancer), H1299, H1975, A549 and LLC-1 (lung cancer), HepG2 and Hep3B (liver cancer) and LO2 (normal human hepatocytes).” for “experiments.”

[10] = tested on: Taxol-resistant HCT8 cancer cells; assay: MTT cytotoxicity, taxol-resistant HCT8; type: cell-based; conditions: for pIC50: HCT8, MTT, 72 h; for Resistant Factor: HCT8, IC50 taxol-resistant over IC50 taxol-sensitive
Protocol: as §1, §3

H1975 (lung cancer) = assay: MTT cytotoxicity assay, H1975; type: cell-based; conditions: 72 h
Protocol: as §1, with “experiments. Cells include HeLa cells (cervical cancer), MCF-7 (breast cancer), H1299, H1975, A549 and LLC-1 (lung cancer), HepG2 and Hep3B (liver cancer) and LO2 (normal human hepatocytes).” for “experiments.”

[11] = tested on: cancer cells from different origins; assay: MTT cytotoxicity assay, summary over cancer cell lines; type: cell-based; conditions: range over the cancer cell lines of Table 1; read-out: mean IC50 values ranging (anti-cancer potency)
Protocol: as §1, with “experiments. Cells include HeLa cells (cervical cancer), MCF-7 (breast cancer), H1299, H1975, A549 and LLC-1 (lung cancer), HepG2 and Hep3B (liver cancer) and LO2 (normal human hepatocytes).” for “experiments.”
By contrast, the cytotoxicity was lower in LO2 normal human hepatocytes. […]

MCF-7 (breast cancer) = assay: MTT cytotoxicity assay, MCF-7; type: cell-based; conditions: MCF-7, MTT, 72 h
Protocol: as §1, with “experiments. Cells include HeLa cells (cervical cancer), MCF-7 (breast cancer), H1299, H1975, A549 and LLC-1 (lung cancer), HepG2 and Hep3B (liver cancer) and LO2 (normal human hepatocytes).” for “experiments.”

[12] = tested on: cisplatin-resistant SGC-7901 gastric cancer cells; assay: MTT cytotoxicity, cisplatin-resistant SGC-7901; type: cell-based; conditions: for pIC50: SGC-7901, MTT, 72 h; for Resistant Factor: SGC-7901, cisplatin-resistant over cisplatin-sensitive
Protocol: as §1, §3

[13] = tested on: cisplatin-sensitive SGC-7901 gastric cancer cells; assay: MTT cytotoxicity, cisplatin-sensitive SGC-7901; type: cell-based; conditions: SGC-7901, MTT, 72 h
Protocol: as §1

[14] = tested on: Taxol-sensitive MCF-7 cancer cells; assay: MTT cytotoxicity, taxol-sensitive MCF-7; type: cell-based; conditions: MCF-7, MTT, 72 h
Protocol: as §1

HepG2 (liver cancer) = assay: MTT cytotoxicity assay, HepG2; type: cell-based; conditions: 72 h
Protocol: as §1, with “experiments. Cells include HeLa cells (cervical cancer), MCF-7 (breast cancer), H1299, H1975, A549 and LLC-1 (lung cancer), HepG2 and Hep3B (liver cancer) and LO2 (normal human hepatocytes).” for “experiments.”

[15] = tested on: HCT116 p53^−/− colon cancer cells; assay: MTT cytotoxicity, HCT116 p53-/-; type: cell-based, human
Protocol: as §1, §2

[16] = tested on: HCT116 p53^+/+ colon cancer cells; assay: MTT cytotoxicity, HCT116 p53+/+; type: cell-based, human; conditions: 72 h
Protocol: as §1, §2

Atg7 wild-type MEFs = assay: Cytotoxic effect in Atg7 wild-type MEFs; type: cell-based, mouse
Excerpt: as §3
(§4) In addition, the protein conversion from LC3-I to LC3-II is the marker for autophagy induction. […] In order to further confirm that the cobalt complex-induced autophagy leads to its anti-cancer effect, the cytotoxic effect of the cobalt-polypyridyl complex of Formula (IV) has been examined in both autophagy-wild type and -deficient cells respectively. Therefore, both autophagy related gene (Atg) 7 wild-type and deficient mouse embryonic fibroblasts (MEFs) (Wong, V. K. et al., Cell Death Dis, 2013, 4, e720) were used in this study. […] In view of the fact that the cobalt-polypyridyl complex of Formula (IV)-mediated cytotoxicity was markedly abrogated from the failure of autophagy induction in Atg7−/− deficient cells, these findings implicated that the cobalt-polypyridyl complex of Formula (IV)-induced autophagy would ultimately led to autophagic cell death.

[17] = tested on: Taxol-sensitive A549 cancer cells; assay: MTT cytotoxicity, taxol-sensitive A549; type: cell-based; conditions: 72 h
Protocol: as §1

Atg7 deficient MEFs = assay: Cytotoxic effect in Atg7 deficient MEFs; type: cell-based, mouse
Excerpt: as §3, §4

[18] = tested on: Taxol-resistant A549 cancer cells; assay: MTT cytotoxicity, taxol-resistant A549; type: cell-based
Protocol: as §1, §3

Molecule | Resistant Factor [2] | pIC50 [3] | pIC50 [4] | pIC50 (LLC-1 (lung cancer)) | pIC50 (Hep 3B (liver cancer)) | pIC50 [5] | Resistant Factor [5] | pIC50 (A549 (lung cancer)) | pIC50 (H1299 (lung cancer)) | pIC50 [6] | pIC50 [7] | pIC50 [8] | Resistant Factor [8] | pIC50 [9] | pIC50 [10] | Resistant Factor [10] | pIC50 (H1975 (lung cancer)) | pIC50 (MCF-7 (breast cancer)) | pIC50 [12] | Resistant Factor [12] | other results
Cc1ccnc(-c2cc(C)ccn2)c1.Cc1ccnc(-c2cc(C)ccn2)c1.Cc1ccnc(-c2cc(C)ccn2)c1.[Cl-].[Cl-].[Cl-].[Co+3] [complex (IV)-Cl] |  |  |  |  |  |  |  |  |  |  |  |  |  |  |  |  |  |  |  |  | reduction in body weight [1]: no significant reduction in body weight
CCCCCCCCCc1ccnc(-c2cc(CCCCCCCCC)ccn2)c1.CCCCCCCCCc1ccnc(-c2cc(CCCCCCCCC)ccn2)c1.CCCCCCCCCc1ccnc(-c2cc(CCCCCCCCC)ccn2)c1.F[P-](F)(F)(F)(F)F.F[P-](F)(F)(F)(F)F.F[P-](F)(F)(F)(F)F.[Co+3] [complex (VIII), [Co^III(4,4′-(C9H19)2-Bpy)3](PF6)3] | 1.87 | 4.67 | 4.31 | 4.98 | 4.27 | 4.54 | 0.96 | 4.08 | 4.57 | 4.25 | 4.52 | 4.95 | 0.39 | 4.40 | 4.39 | 0.73 | 4.62 | 4.43 | 4.44 | 0.99 | pIC50 [11]: 4.08 to 4.98; pIC50 [13]: 4.44; pIC50 [14]: 4.55; pIC50 (HepG2 (liver cancer)): 4.59
[Co^II(4,4′-Me2-Bpy)3](PF6)2 [complex (III)] | 2.21 | 5.00 | 5.15 | 5.55 | 5.39 | 4.95 | 0.94 | 5.02 | 5.46 | 5.50 | 4.92 | 5.60 | 0.54 | 4.87 | 5.94 | 0.37 | 4.81 | 4.81 | 4.75 | 1.50 | pIC50 ([2]; OV2008/C13, MTT, 72 h): 4.81; Resistant Factor ([15]; HCT116 p53^−/− over HCT116 p53^+/+): 0.52; pIC50 ([15]; MTT, 72 h): 5.05; pIC50 [16]: 4.77; pIC50 (Atg7 wild-type MEFs): 5.32; pIC50 [13]: 4.93; pIC50 [17]: 5.02; pIC50 (Atg7 deficient MEFs): 4.85; pIC50 ([18]; A549, MTT, 72 h): 5.63; Resistant Factor ([18]; A549, IC50 taxol-resistant over IC50 taxol-sensitive): 0.25; pIC50 [14]: 5.34; pIC50 (HepG2 (liver cancer)): 5.13

— patent publication US9895338B1, “Cobalt-polypyridyl complex for treatment of cancer, a pharmaceutical composition and a kit comprising it” (Macau University of Science and Technology, priority 2016, dated 2018)
